Data published in publication PMC9393165 (Scientific Reports, 2022).
Where two headings read alike, the source gives them in different places. Marks after values point to notes of the source that are not given here.

What was measured:
[1] = Clinical outcomes after kidney transplantation (hypotension, DGF, BPAR, post-transplant diabetes, tremor); format: in vivo, human
Procedure: (§1) For calculation of AUC/D and C0/D, values of AUC and C0 were dose-adjusted by dividing the observed values by the dose recorded on the day of blood collection. Early-morning blood pressures were measured on the same day of blood collection for pharmacokinetic analysis by a ward nurse as part of a routine examination, during rest in a seated position with a calibrated and well-maintained automatic sphygmomanometer. Delayed graft function (DGF) was defined as failure of the kidney graft to function immediately, with the need for dialysis in the first 7 days post-KT. Episode of biopsy-proven acute rejection (BPAR) during 3 months post-KT was diagnosed based on histologic findings in indication kidney graft biopsy according to Banff 2015 criteria.

[2] = Tacrolimus whole blood concentration, trough and 12-h AUC after kidney transplantation (chemiluminescent microparticle immunoassay); format: in vivo, human; details: for C0 / AUC: human, whole blood, oral
Procedure: This prospective, randomized, double-blind, placebo-controlled study was carried out in four parallel groups of KTRs. […] The randomization schedule was concealed in sequentially numbered, sealed, opaque envelopes, and kept in a locked cabinet in the central pharmacy of Siriraj Hospital. Envelopes were opened sequentially only after enrollment of each participant. The diltiazem and placebo containers, which were issued with a medication number and assigned to consecutive patients in a sequential order, were tamper-proof, equal in weight, and similar in appearance. A pharmacist not involved in the care of the study patients did the randomization, distributed the study agents, and held the trial codes, which were disclosed after the study. Physicians, nurses, other care providers, and the study patients were unaware of the group allocations.
All participants received oral, immediate-release tacrolimus (Prograf®; Astellas, Kerry, Ireland). According to Siriraj Hospital protocol, the initial dose (0.05 mg/kg every 12 h) of tacrolimus was started 2 days before KT (day − 2) and subsequently adjusted after KT based on efficacy and toxicity and to maintain morning trough concentrations of 7 to 10 ng/mL in standard risk patients and 10 to 12 ng/mL in high-risk patients during the first week after transplantation. Participants also received either mycophenolate mofetil (Cellcept®; F Hoffmann-La Roche Ltd, Basel, Switzerland or Immucept®; Intas Pharmaceuticals Ltd., Gujarat, India) or mycophenolate sodium (Myfortic®; Novartis Pharma Stein, Switzerland for Novartis AG, Basel, Switzerland) at the dosage equivalent to 2 g/day of mycophenolate mofetil. A tapered corticosteroid regimen was administered consisting of an intravenous bolus of 500 mg of methylprednisolone (Solu-medrol®; Novartis Pharma Stein, Switzerland for Novartis AG, Basel, Switzerland) on day 0, 250 mg on day 1, 125 mg on day 2 followed by 40 mg/day of prednisolone on day 4 after KT. The subsequent prednisolone doses were gradually tapered thereafter. Induction therapy with basiliximab (Simulect®; Novartis Pharma AG, Basel, Switzerland) was allowed.
All patients received a fixed dose of omeprazole 40 mg/day.
[…] Samples were collected in EDTA tubes and stored at 4 degrees Celsius until analysis. Whole blood tacrolimus concentrations were determined within the same day of blood collection by using a chemiluminescent microparticle immunoassay method with […] system® i2000 (Abbott, Abbott Diagnostic, USA). The method was linear in the concentration range up to 30 ng/mL, the limits of quantification were 0.8 ng/mL, and the coefficient of variation of within run precision and between run precision were less than 10%. Mean recovery was 100 ± 10% according to the manufacturer’s information.
as §1

[3] = day 1 post-transplantation, CYP3A5 expressers, diltiazem 30 mg every 12 h (n = 11), median (IQR)
[4] = day 1 post-transplantation, CYP3A5 expressers, placebo (n = 12), median (IQR)
[5] = day 1 post-transplantation, CYP3A5 non-expressers, diltiazem 30 mg every 12 h (n = 9), median (IQR)
[6] = day 1 post-transplantation, CYP3A5 non-expressers, placebo (n = 8), median (IQR)
[7] = day 3 post-transplantation, CYP3A5 expressers, diltiazem 30 mg every 12 h (n = 11), median (IQR)
[8] = day 3 post-transplantation, CYP3A5 expressers, placebo (n = 12), median (IQR)
[9] = day 3 post-transplantation, CYP3A5 non-expressers, diltiazem 30 mg every 12 h (n = 9), median (IQR)
[10] = day 3 post-transplantation, CYP3A5 non-expressers, placebo (n = 8), median (IQR)
[11] = day 7, all 40 KTRs, median (IQR)
[12] = day 7 post-transplantation, CYP3A5 expressers, diltiazem 30 mg every 12 h (n = 11), median (IQR)
[13] = day 7 post-transplantation, CYP3A5 expressers, placebo (n = 12), median (IQR)
[14] = day 7 post-transplantation, CYP3A5 non-expressers, diltiazem 30 mg every 12 h (n = 9), median (IQR)
[15] = day 7 post-transplantation, CYP3A5 non-expressers, placebo (n = 8), median (IQR)

Tremor ([1]; during 3 months after transplantation, 40 KTRs): No study patients reported tremor
Post-transplant diabetes mellitus ([1]; during 3 months after transplantation, 40 KTRs, one in EXplb, one in EXdtz): 5%
C0/D [2, 3]: 3.3 (2.6, 4.5) ng/mL per mg
C0/Daily dose [2, 3]: 1.6 (1.3, 2.3) ng/mL per mg/day
C0/D [2, 4]: 2.2 (1.3, 2.8) ng/mL per mg
C0/Daily dose [2, 4]: 1.1 (0.6, 1.4) ng/mL per mg/day
C0/D [2, 5]: 3.8 (2.7, 7.2)^c ng/mL per mg
C0/Daily dose [2, 5]: 1.9 (1.3, 3.6)^c ng/mL per mg/day
C0/D [2, 6]: 3.8 (2.0, 5.0) ng/mL per mg
C0/Daily dose [2, 6]: 1.9 (1.0, 2.5) ng/mL per mg/day
C0/D [2, 7]: 3.7 (2.4, 4.5)^c ng/mL per mg
C0/Daily dose [2, 7]: 1.8 (1.2, 2.2)^c ng/mL per mg/day
C0/D [2, 8]: 1.8 (1.1, 2.0) ng/mL per mg
C0/Daily dose [2, 8]: 0.9 (0.6, 1.0) ng/mL per mg/day
C0/D [2, 9]: 6.4 (4.1, 8.8)^c ng/mL per mg
C0/Daily dose [2, 9]: 3.2 (2.0, 4.4)^c ng/mL per mg/day
C0/D [2, 10]: 3.4 (2.7, 5.8)^c ng/mL per mg
C0/Daily dose [2, 10]: 1.7 (1.4, 2.9)^c ng/mL per mg/day
AUC/D [2, 11]: 44.9 (37.1, 65.3) ng*h/mL per mg
C0/D [2, 11]: 2.5 (1.8, 3.7) ng/mL per mg
C0, range ([2]; day 7, all 40 KTRs, range): 5.0 to 13.2 ng/mL
AUC/D (dose-adjusted area under the 12-h curve) ([2]; day 7 post-transplantation, CYP3A5 expressers, diltiazem 30 mg every 12 h (EXdtz, n = 11), median (IQR)): 43.6 (37.0, 50.5) ng*h/mL per mg
AUC/D (dose-adjusted area under the 12-h curve) ([2]; day 7 post-transplantation, CYP3A5 expressers, diltiazem 30 mg every 12 h (EXdtz, n = 11), median (IQR), listed as tacrolimus): 43.6 ng*h/mL per mg
C0/D [2, 12]: 1.9 (1.8, 3.2) ng/mL per mg
C0/Daily dose [2, 12]: 1.0 (0.9, 1.6) ng/mL per mg/day
AUC/D (dose-adjusted area under the 12-h curve) ([2]; day 7 post-transplantation, CYP3A5 expressers, placebo (EXplb, n = 12), median (IQR)): 34.9 (31.6, 38.5) ng*h/mL per mg
AUC/D (dose-adjusted area under the 12-h curve) ([2]; day 7 post-transplantation, CYP3A5 expressers, placebo (EXplb, n = 12), median (IQR), listed as tacrolimus): 34.9 ng*h/mL per mg
C0/D [2, 13]: 2.0 (1.4, 2.5) ng/mL per mg
C0/Daily dose [2, 13]: 1.0 (0.7, 1.2) ng/mL per mg/day
AUC/D (dose-adjusted area under the 12-h curve) ([2]; day 7 post-transplantation, CYP3A5 non-expressers, diltiazem 30 mg every 12 h (NEdtz, n = 9), median (IQR)): 71.1 (54.9, 100.7)^c ng*h/mL per mg
AUC/D (dose-adjusted area under the 12-h curve) ([2]; day 7 post-transplantation, CYP3A5 non-expressers, diltiazem 30 mg every 12 h (NEdtz, n = 9), median (IQR), listed as tacrolimus): 71.1 ng*h/mL per mg
C0/D [2, 14]: 4.2 (2.8, 6.0)^c ng/mL per mg
C0/Daily dose [2, 14]: 2.1 (1.4, 3.0)^c ng/mL per mg/day
AUC/D (dose-adjusted area under the 12-h curve) ([2]; day 7 post-transplantation, CYP3A5 non-expressers, placebo (NEplb, n = 8), median (IQR)): 49.4 (43.0, 62.9)^c ng*h/mL per mg
AUC/D (dose-adjusted area under the 12-h curve) ([2]; day 7 post-transplantation, CYP3A5 non-expressers, placebo (NEplb, n = 8), median (IQR), listed as tacrolimus): 49.4 ng*h/mL per mg
C0/D [2, 15]: 2.8 (2.5, 3.4) ng/mL per mg
C0/Daily dose [2, 15]: 1.4 (1.2, 1.7) ng/mL per mg/day
C0 ([2]; 30 mg, day 1 post-transplantation, CYP3A5 expressers, diltiazem 30 mg every 12 h (n = 11), mean ± SD): 10.9 ± 3.7 ng/mL
C0 ([2]; 30 mg, day 1 post-transplantation, CYP3A5 non-expressers, diltiazem 30 mg every 12 h (n = 9), mean ± SD): 13.1 ± 7.4 ng/mL
C0 ([2]; 30 mg, day 3 post-transplantation, CYP3A5 expressers, diltiazem 30 mg every 12 h (n = 11), median (IQR)): 9.3 ng/mL
C0 ([2]; 30 mg, day 3 post-transplantation, CYP3A5 non-expressers, diltiazem 30 mg every 12 h (n = 9), median (IQR)): 11.9 ng/mL
C0 ([2]; 30 mg, day 7 post-transplantation, CYP3A5 expressers, diltiazem 30 mg every 12 h (n = 11), mean ± SD): 7.4 ± 2.1 ng/mL
AUC ([2]; 30 mg, day 7 post-transplantation, CYP3A5 expressers, diltiazem 30 mg every 12 h (n = 11), mean ± SD, read-out: AUC (area under the concentration over 12-h curve)): 138 ± 29.6 ng·h/mL
C0 ([2]; 30 mg, day 7 post-transplantation, CYP3A5 non-expressers, diltiazem 30 mg every 12 h (n = 9), mean ± SD): 8.4 ± 1.8 ng/mL
AUC ([2]; 30 mg, day 7 post-transplantation, CYP3A5 non-expressers, diltiazem 30 mg every 12 h (n = 9), mean ± SD, read-out: AUC (area under the concentration over 12-h curve)): 148 ± 25.5 ng·h/mL
C0 ([2]; day 1 post-transplantation, CYP3A5 expressers, placebo (n = 12), mean ± SD): 7 ± 3.2 ng/mL
C0 ([2]; day 1 post-transplantation, CYP3A5 non-expressers, placebo (n = 8), mean ± SD): 12.6 ± 7.2 ng/mL
C0 [2, 8]: 6.2 ng/mL
C0 [2, 10]: 9.4 ng/mL
C0 ([2]; day 7, all 40 KTRs, mean ± SD): 8.4 ± 2.1 ng/mL
AUC ([2]; day 7, all 40 KTRs, mean ± SD, read-out: AUC): 154 ± 33.2 ng·h/mL
AUC ([2]; day 7, all 40 KTRs, range, read-out: AUC, range): 96.9 to 233 ng·h/mL
C0 ([2]; day 7 post-transplantation, CYP3A5 expressers, placebo (n = 12), mean ± SD): 9.2 ± 1.6 ng/mL
AUC ([2]; day 7 post-transplantation, CYP3A5 expressers, placebo (n = 12), mean ± SD, read-out: AUC (area under the concentration over 12-h curve)): 169 ± 32.2 ng·h/mL
C0 ([2]; day 7 post-transplantation, CYP3A5 non-expressers, placebo (n = 8), mean ± SD): 8.6 ± 2.5 ng/mL
AUC ([2]; day 7 post-transplantation, CYP3A5 non-expressers, placebo (n = 8), mean ± SD, read-out: AUC (area under the concentration over 12-h curve)): 159 ± 40.7 ng·h/mL
Compound: C=CC[C@@H]1/C=C(\C)C[C@H](C)C[C@H](OC)[C@H]2O[C@@](O)(C(=O)C(=O)N3CCCC[C@H]3C(=O)O[C@H](/C(C)=C/[C@@H]3CC[C@@H](O)[C@H](OC)C3)[C@H](C)[C@@H](O)CC1=O)[C@H](C)C[C@@H]2OC [Tacrolimus]
Biopsy-proven acute rejection (BPAR) ([1]; during 3 months after transplantation, 40 KTRs on tacrolimus-based regimen, one in EXdtz, one in NEplb): 5%
DGF, suspected rejection, or BPAR ([1]; first week post-KT, 40 KTRs on tacrolimus-based regimen): None
